Results published in ChEMBL document CHEMBL1909046, “DrugMatrix in vitro pharmacology data”.

Legend:
[1] = target: Sigma non-opioid intracellular receptor 1 (Homo sapiens, UniProt Q99720); test: DRUGMATRIX: Sigma1 radioligand binding (ligand: [3H] Haloperidol); format: cell membranes, Jurkat, Membrane; conditions: jurkat; Not Active = under 50% inhibition at 10 µM
[2] = DRUGMATRIX: Sigma2 radioligand binding (ligand: [3H] Ifenprodil); format: cell membranes, Rattus norvegicus, Wistar, Brain, Membrane; conditions: Not Active = under 50% inhibition at 10 µM
Substance-P receptor = Substance-P receptor (Homo sapiens, UniProt P25103); format: cell membranes, CHO, Membrane; conditions: cho; note: in other assays of this panel Not Active means under 50% inhibition at 10 µM
[3] = DRUGMATRIX: GABAA, Flunitrazepam, Central radioligand binding (ligand: [3H] Flunitrazepam); format: cell membranes, Rattus norvegicus, Wistar, Brain, Membrane; conditions: Not Active = under 50% inhibition at 10 µM
[4] = DRUGMATRIX: Glutamate, Kainate radioligand binding (ligand: [3H] Kainic acid); format: cell membranes, Rattus norvegicus, Wistar, Brain, Membrane; conditions: Not Active = under 50% inhibition at 10 µM
Leukotriene C4 synthase = target: T1, Leukotriene C4 synthase (Cavia porcellus, UniProt A6XA80); test: biochemical; format: tissue-based, Lung;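 note: enzyme inhibition assay of leukotriene C4 synthase, using LTA4 as the substrate; in other assays of this panel Not Active means under 50% inhibition at 10 µM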
T1 sequence (A6XA80 whole entry): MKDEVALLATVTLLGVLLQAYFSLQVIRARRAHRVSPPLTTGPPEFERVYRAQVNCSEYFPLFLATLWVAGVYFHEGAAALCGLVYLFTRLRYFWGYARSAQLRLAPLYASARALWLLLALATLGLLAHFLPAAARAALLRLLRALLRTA

[5] = target: T2, Polyunsaturated fatty acid lipoxygenase ALOX15 (Oryctolagus cuniculus, UniProt P12530); test: biochemical; format: tissue-based, Reticulocytes; conditions: reticulocytes;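 note: inhibition of 15-lipoxygenase enzyme activity measured with linoleic acid as the substrate; in other assays of this panel Not Active means under 50% inhibition at 10 µM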
T2 sequence (P12530 whole entry): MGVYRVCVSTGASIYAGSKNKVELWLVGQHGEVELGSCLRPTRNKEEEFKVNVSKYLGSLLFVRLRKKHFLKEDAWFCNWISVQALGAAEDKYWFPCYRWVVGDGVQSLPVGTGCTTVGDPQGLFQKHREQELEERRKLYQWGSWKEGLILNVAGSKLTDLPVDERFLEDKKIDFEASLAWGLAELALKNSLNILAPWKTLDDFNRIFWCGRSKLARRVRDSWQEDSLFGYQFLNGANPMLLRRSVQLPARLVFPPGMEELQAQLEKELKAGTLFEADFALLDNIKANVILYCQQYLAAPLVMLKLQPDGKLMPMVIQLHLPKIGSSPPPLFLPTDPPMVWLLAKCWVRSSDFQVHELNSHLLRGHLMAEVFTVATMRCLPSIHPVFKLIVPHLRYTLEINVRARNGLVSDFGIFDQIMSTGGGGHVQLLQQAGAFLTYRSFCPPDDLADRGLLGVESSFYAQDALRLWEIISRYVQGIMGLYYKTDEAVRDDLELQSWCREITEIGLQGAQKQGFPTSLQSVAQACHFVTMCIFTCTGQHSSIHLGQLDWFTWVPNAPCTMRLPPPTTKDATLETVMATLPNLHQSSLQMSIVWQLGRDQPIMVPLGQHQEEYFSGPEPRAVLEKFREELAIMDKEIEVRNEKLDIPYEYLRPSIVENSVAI

[6] = DRUGMATRIX: Phorbol Ester radioligand binding (ligand: [3H] PDBu); format: cell membranes, Mus musculus, ICR, Brain, Membrane; conditions: Not Active = under 50% inhibition at 10 µM
[7] = target: cGMP-specific 3',5'-cyclic phosphodiesterase (Homo sapiens, UniProt O76074); test: DRUGMATRIX: Phosphodiesterase PDE5 enzyme inhibition (substrate: [3H]cGMP + cGMP); format: tissue-based, Platelet; conditions: platelet; Not Active = under 50% inhibition at 10 µM
[8] = target: Platelet-activating factor receptor (Homo sapiens, UniProt P25105); test: biochemical; format: tissue-based; conditions: platelet; note: in other assays of this panel Not Active means under 50% inhibition at 10 µM
[9] = target: Matrix metalloproteinase-9 (Homo sapiens, UniProt P14780); format: cell-based
[10] = target: Protein phosphatase 3 catalytic subunit alpha (Homo sapiens, UniProt Q08209); set-up: species or system Escherichia coli
[11] = target: 5-hydroxytryptamine receptor 1B (Rattus norvegicus, UniProt P28564); format: cell membranes, Wistar, Cerebral cortex, Membrane; note: in other assays of this panel Not Active means under 50% inhibition at 10 µM
Cytochrome P450 2A6 = target: T3, Cytochrome P450 2A6 (Homo sapiens, UniProt P11509); conditions: bti-tn-5b1-4; note: in other assays of this panel Not Active means under 50% inhibition at 10 µM
T3 sequence (P11509 whole entry): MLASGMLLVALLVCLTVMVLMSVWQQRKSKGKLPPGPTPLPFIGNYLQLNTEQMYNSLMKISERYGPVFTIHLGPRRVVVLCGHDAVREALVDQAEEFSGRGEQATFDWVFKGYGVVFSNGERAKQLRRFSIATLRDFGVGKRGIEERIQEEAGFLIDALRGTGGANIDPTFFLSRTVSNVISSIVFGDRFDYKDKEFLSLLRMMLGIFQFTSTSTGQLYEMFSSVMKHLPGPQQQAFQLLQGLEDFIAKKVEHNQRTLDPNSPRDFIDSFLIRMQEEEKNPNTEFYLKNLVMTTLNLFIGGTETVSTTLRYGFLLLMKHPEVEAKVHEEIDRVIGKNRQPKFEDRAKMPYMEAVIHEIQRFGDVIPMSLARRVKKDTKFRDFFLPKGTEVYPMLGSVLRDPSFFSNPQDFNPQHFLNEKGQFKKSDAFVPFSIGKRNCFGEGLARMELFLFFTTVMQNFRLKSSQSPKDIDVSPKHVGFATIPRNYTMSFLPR

Sequence of Platelet-activating factor receptor (P25105 whole entry): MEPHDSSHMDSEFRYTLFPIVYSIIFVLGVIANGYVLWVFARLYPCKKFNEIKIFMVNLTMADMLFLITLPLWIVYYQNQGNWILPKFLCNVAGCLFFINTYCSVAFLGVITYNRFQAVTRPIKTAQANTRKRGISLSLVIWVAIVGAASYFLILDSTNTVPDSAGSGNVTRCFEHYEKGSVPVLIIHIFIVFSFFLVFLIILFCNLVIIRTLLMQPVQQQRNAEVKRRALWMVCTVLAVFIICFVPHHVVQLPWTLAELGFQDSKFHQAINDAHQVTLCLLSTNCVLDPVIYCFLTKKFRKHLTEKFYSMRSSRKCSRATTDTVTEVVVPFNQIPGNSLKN
Sequence of Matrix metalloproteinase-9 (P14780 whole entry): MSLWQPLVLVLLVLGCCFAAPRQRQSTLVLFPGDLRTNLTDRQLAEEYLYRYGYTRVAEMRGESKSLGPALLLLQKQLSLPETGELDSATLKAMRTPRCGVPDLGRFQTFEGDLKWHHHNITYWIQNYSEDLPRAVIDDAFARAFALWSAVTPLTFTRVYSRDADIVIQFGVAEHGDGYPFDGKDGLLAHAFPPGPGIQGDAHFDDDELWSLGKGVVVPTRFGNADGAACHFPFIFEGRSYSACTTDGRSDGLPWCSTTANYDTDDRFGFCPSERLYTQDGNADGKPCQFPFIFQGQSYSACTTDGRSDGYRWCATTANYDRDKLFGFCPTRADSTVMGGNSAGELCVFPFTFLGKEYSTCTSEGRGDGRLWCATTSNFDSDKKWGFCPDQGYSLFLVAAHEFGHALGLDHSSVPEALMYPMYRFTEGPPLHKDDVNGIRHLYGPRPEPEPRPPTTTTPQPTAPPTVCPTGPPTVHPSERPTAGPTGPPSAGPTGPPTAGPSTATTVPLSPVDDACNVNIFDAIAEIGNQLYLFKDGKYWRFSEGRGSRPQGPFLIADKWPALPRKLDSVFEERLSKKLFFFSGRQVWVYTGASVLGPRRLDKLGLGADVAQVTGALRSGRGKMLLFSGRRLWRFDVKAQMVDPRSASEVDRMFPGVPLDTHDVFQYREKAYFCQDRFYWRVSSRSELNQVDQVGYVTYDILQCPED
Sequence of Sigma non-opioid intracellular receptor 1 (Q99720 whole entry): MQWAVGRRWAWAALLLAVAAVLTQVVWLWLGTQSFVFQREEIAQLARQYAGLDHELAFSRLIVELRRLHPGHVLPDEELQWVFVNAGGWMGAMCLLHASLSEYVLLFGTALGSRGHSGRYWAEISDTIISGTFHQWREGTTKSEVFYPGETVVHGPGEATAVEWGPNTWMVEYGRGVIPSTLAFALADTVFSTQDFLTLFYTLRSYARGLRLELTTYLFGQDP
Sequence of Substance-P receptor (P25103 whole entry): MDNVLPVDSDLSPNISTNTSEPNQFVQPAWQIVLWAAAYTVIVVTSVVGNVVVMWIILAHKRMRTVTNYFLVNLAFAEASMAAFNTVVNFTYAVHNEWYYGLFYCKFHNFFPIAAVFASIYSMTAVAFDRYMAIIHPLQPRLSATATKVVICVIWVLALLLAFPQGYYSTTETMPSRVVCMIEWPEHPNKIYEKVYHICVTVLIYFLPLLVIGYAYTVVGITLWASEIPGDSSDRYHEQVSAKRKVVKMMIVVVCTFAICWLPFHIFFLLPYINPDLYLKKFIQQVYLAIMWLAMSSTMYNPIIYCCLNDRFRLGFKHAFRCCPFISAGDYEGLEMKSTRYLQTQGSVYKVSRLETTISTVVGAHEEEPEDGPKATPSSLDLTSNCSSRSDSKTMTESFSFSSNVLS
Sequence of 5-hydroxytryptamine receptor 1B (P28564 whole entry): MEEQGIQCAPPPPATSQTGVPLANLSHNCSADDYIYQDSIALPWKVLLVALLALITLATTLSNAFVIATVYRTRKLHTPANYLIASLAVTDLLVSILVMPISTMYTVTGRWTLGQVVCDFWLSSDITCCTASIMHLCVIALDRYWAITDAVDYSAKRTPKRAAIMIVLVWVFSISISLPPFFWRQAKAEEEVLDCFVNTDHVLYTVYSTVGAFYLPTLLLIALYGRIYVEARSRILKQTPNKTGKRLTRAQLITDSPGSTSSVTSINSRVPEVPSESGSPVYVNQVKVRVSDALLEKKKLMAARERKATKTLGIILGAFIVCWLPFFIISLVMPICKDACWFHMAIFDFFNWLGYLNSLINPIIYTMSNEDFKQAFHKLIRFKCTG

C/C=C1\[C@H]2C=C(C)C[C@]1(N)c1ccc(=O)[nH]c1C2 [HUPERZINE A]
Not Active: IC50 [1] | IC50 [2] | Ki [2] | IC50 (Substance-P receptor) | IC50 [3] | Ki [3] | IC50 [4] | Ki [4] | IC50 (Leukotriene C4 synthase) | IC50 [5] | IC50 [6] | Ki [6] | IC50 [7] | IC50 [8] | IC50 [9] | IC50 [10] | IC50 [11] | IC50 (Cytochrome P450 2A6) | Ki (Cytochrome P450 2A6)

CCC1(c2ccccc2)C(=O)NCNC1=O [PRIMIDONE]
Not Active: IC50 [1] | IC50 [2] | Ki [2] | IC50 (Substance-P receptor) | IC50 [3] | Ki [3] | IC50 [4] | Ki [4] | IC50 (Leukotriene C4 synthase) | IC50 [5] | IC50 [6] | Ki [6] | IC50 [7] | IC50 [8] | IC50 [9] | IC50 [10] | IC50 [11] | IC50 (Cytochrome P450 2A6) | Ki (Cytochrome P450 2A6)

CCOC(=O)c1ccc(N)cc1 [BENZOCAINE]
Not Active: IC50 [1] | IC50 [2] | Ki [2] | IC50 (Substance-P receptor) | IC50 [3] | Ki [3] | IC50 [4] | Ki [4] | IC50 (Leukotriene C4 synthase) | IC50 [5] | IC50 [6] | Ki [6] | IC50 [7] | IC50 [8] | IC50 [9] | IC50 [10] | IC50 [11] | IC50 (Cytochrome P450 2A6) | Ki (Cytochrome P450 2A6)

CC(=O)OCC(=O)[C@@]1(OC(C)=O)[C@@H](C)C[C@H]2[C@@H]3C[C@H](F)C4=CC(=O)C=C[C@]4(C)[C@@]3(F)[C@@H](O)C[C@@]21C [DIFLORASONE DIACETATE]
Not Active: IC50 [1] | IC50 [2] | Ki [2] | IC50 (Substance-P receptor) | IC50 [3] | Ki [3] | IC50 [4] | Ki [4] | IC50 (Leukotriene C4 synthase) | IC50 [5] | IC50 [6] | Ki [6] | IC50 [7] | IC50 [8] | IC50 [9] | IC50 [10] | IC50 [11] | IC50 (Cytochrome P450 2A6) | Ki (Cytochrome P450 2A6)

O=C1NC(=O)C(c2ccccc2)(c2ccccc2)N1 [PHENYTOIN]
Not Active: IC50 [1] | IC50 [2] | Ki [2] | IC50 (Substance-P receptor) | IC50 [3] | Ki [3] | IC50 [4] | Ki [4] | IC50 (Leukotriene C4 synthase) | IC50 [5] | IC50 [6] | Ki [6] | IC50 [7] | IC50 [8] | IC50 [9] | IC50 [10] | IC50 [11] | IC50 (Cytochrome P450 2A6) | Ki (Cytochrome P450 2A6)

C=C1CC[C@H](O)C/C1=C/C=C1\CCC[C@]2(C)[C@@H]([C@H](C)/C=C/[C@H](C)C(C)C)CC[C@@H]12 [ERGOCALCIFEROL]
Not Active: IC50 [1] | IC50 [2] | Ki [2] | IC50 (Substance-P receptor) | IC50 [3] | Ki [3] | IC50 [4] | Ki [4] | IC50 (Leukotriene C4 synthase) | IC50 [5] | IC50 [6] | Ki [6] | IC50 [7] | IC50 [8] | IC50 [9] | IC50 [10] | IC50 [11] | IC50 (Cytochrome P450 2A6) | Ki (Cytochrome P450 2A6)

NCC1(CC(=O)O)CCCCC1 [GABAPENTIN]
Not Active: IC50 [1] | IC50 [2] | Ki [2] | IC50 (Substance-P receptor) | IC50 [3] | Ki [3] | IC50 [4] | Ki [4] | IC50 (Leukotriene C4 synthase) | IC50 [5] | IC50 [6] | Ki [6] | IC50 [7] | IC50 [8] | IC50 [9] | IC50 [10] | IC50 [11] | IC50 (Cytochrome P450 2A6) | Ki (Cytochrome P450 2A6)

COc1c(N2CCNC(C)C2)c(F)cc2c(=O)c(C(=O)O)cn(C3CC3)c12 (stereo unspecified) [GATIFLOXACIN]
Not Active: IC50 [1] | IC50 [2] | Ki [2] | IC50 (Substance-P receptor) | IC50 [3] | Ki [3] | IC50 [4] | Ki [4] | IC50 (Leukotriene C4 synthase) | IC50 [5] | IC50 [6] | Ki [6] | IC50 [7] | IC50 [8] | IC50 [9] | IC50 [10] | IC50 [11] | IC50 (Cytochrome P450 2A6) | Ki (Cytochrome P450 2A6)

COc1ccc2c(c1)c(CC(=O)OCC(=O)O)c(C)n2C(=O)c1ccc(Cl)cc1 [ACEMETACIN]
Not Active: IC50 [1] | IC50 [2] | Ki [2] | IC50 (Substance-P receptor) | IC50 [3] | Ki [3] | IC50 [4] | Ki [4] | IC50 (Leukotriene C4 synthase) | IC50 [5] | IC50 [6] | Ki [6] | IC50 [7] | IC50 [8] | IC50 [9] | IC50 [10] | IC50 [11] | IC50 (Cytochrome P450 2A6) | Ki (Cytochrome P450 2A6)
